Assay results: US5798381A, “Biologically active bistramides, process for their production and their applications in therapy” (Institut Francais de Recherche Scientifique pour le …, priority 1993, dated 1998)
In brackets after ≈: the same amount, converted by molar mass. Entries after “also recorded” stand apart in the source; their conditions may differ. Where two headings read alike, the source gives them in different places.

Assays:
mice = assay: Acute toxicity (LD50), intravenous injection in mice; type: in vivo; conditions: statement in words
Procedure: The LD50 of these bistramides is in fact of the order of 1.7 mg/kg (measured in mice, after injection of the product by intravenous route as a single dose).
The "LD50 " of the products of the invention has been measured for mice after injection of the products by intravenous route.

[1] = system: NSCLC solid tumours (xenograft); type: in vivo, nude mouse
Procedure: The anti-tumoural activity of the products of the invention was studied against solid tumours of NSCLC type grafted onto a nude mouse (D. Riou, C. Roussakis, J. F. Biard, J. F. Verbist: "Comparative study of antitumor activity of bistramides A, D and K against non-small cell bronchopulmonary carcinoma", Anticancer Research, 1993, 13, 2321-2334). Each mouse received 0.2 ml of a cell solution obtained by the mechanical dispersion of about 1 g of excised mouse tumour in 4.8 ml of a sterile saline solution. The sub-cutaneous grafted tumours were measured over their long length L and their short length 1. The tumoural volume was evaluated according to the formula Vt=L×1^2 /2. The tumoural growth on day d was calculated by the formula Vtd /Vtd0 for each mouse, Vtd0 being the tumoural volume at the start of treatment.
The curve "------.circle-solid.------ " relates to the control experiment, the curves "--- .diamond-solid.---", "-- .quadrature.--" and "-- .box-solid.--" to experiments with 10, 20 and 5 mg/kg of bistramide D respectively and the curve "----*----" to an experiment with 10 mg/kg of bistramide K. Each point represents the average tumoural growth for 6 mice.
In these experiments, bistramide K is injected at the rate of 10 mg/kg by intraperitoneal route for 16 days and bistramide D at the rate of 5 mg/kg by intraperitoneal route every day for 16 days; at 10 mg/kg by intravenous route on days 1, 5, 9, 14, and at 20 mg/kg by intravenous route on days 1, 5, 9, 14.

KB = assay: Cytotoxicity, 50% inhibition of cell growth, KB; type: cell-based; conditions: Homo sapiens, read-out: IC50 (50% inhibition of cell growth)
Procedure: (§1) The cytoxicity results are recorded hereafter as the IC50 in μg/ml (concentration corresponding to a 50% inhibition of cell growth) on 6 tumoural lines namely KB, P388, P388/dox (resistant to doxorubicin), B16 and H429 and NSCLC-N6, which are human cells of non-small cell bronchopulmonary carcinoma type.
(§2) The determinations were carried out according to the protocol given in Cancer Chemother. Pharmacol. (1991) 28:283-292 by Roussakis et al.

P388 (p388s) = assay: Cytotoxicity, 50% inhibition of cell growth, P388; type: cell-based; conditions: Mus musculus, P388/S, read-out: IC50 (50% inhibition of cell growth)
Procedure: as §1, §2

P388/dox (p388r) = assay: Cytotoxicity, 50% inhibition of cell growth, P388/dox (resistant to doxorubicin); type: cell-based; conditions: Mus musculus
Procedure: as §1, §2

B16 = assay: Cytotoxicity, 50% inhibition of cell growth, B16; type: cell-based
Procedure: as §1, §2

HT 29 = assay: Cytotoxicity, 50% inhibition of cell growth, HT 29; type: cell-based; conditions: Homo sapiens
Procedure: as §1, §2

NSCLC.N6-L16 = assay: Cytotoxicity, 50% inhibition of cell growth, NSCLC-N6; type: cell-based; conditions: Homo sapiens
Procedure: as §1, §2

C/C=C/C(=O)CC1CCC(C)C(CC(=O)NCC(O)C(C)C(=O)NCCCC2OC3(CCCC(CCC(C)/C=C(\C)C(C)O)O3)CCC2C)O1 (stereo not drawn) [Bistramide A]
toxicity in vivo (mice): high toxicity; also recorded: toxic | toxicity in vivo (mice; listed as A bistramide): acute toxicity | toxicity under the conditions of the xenograft test ([1]; mouse, in vivo): too toxic for an anti-tumoural effect to be observed

CCCC(=O)CC1CCC(C)C(CC(=O)NCC(O)C(C)C(=O)NCCCC2OC3(CCCC(CCC(C)C=C(C)C(C)O)O3)CCC2C)O1 (stereo not drawn) [Bistramide B]
toxicity in vivo (mice): high toxicity

C/C=C/C(=O)CC1CCC(C)C(CC(=O)NCC(O)C(C)C(=O)NCCCC2OC3(CCCC(CCC(C)C=C(C)C(C)=O)O3)CCC2C)O1 (stereo not drawn) [Bistramide C]
toxicity in vivo (mice): high toxicity

C/C=C/C(O)C/C=C/CC(C)C(O)CC(=O)NCC(O)C(C)C(=O)NCCCC1OC2(CCCC(CCC(C)/C=C(\C)C(C)O)O2)CCC1C (stereo not drawn) [Bistramide K]
IC50 (KB): > 10 µg/mL | IC50 (P388 (p388s); p388s): 0.57 µg/mL (≈ 0.806 µM) | IC50 (P388/dox (p388r)): > 10 µg/mL | IC50 (B16; Mus musculus, B16; read-out: IC50 (50% inhibition of cell growth)): 1.9 µg/mL (≈ 2.69 µM) | IC50 (HT 29; HT 29, read-out: IC50 (50% inhibition of cell growth)): 5.6 µg/mL (≈ 7.92 µM) | IC50 (NSCLC.N6-L16; NSCLC.N6-L16, read-out: IC50 (50% inhibition of cell growth)): 3.23 µg/mL (≈ 4.57 µM) | tumoural growth relative to controls (100%) ([1]; 10 mg/kg, IP, for 16 days, at the end of 30 days): 49%

C/C=C\C(=O)CC1CCC(C)C(CC(=O)NCC(O)C(C)C(=O)NCCCC2OC3(CCCC(CCC(C)/C=C(\C)C(C)O)O3)CCC2C)O1 (stereo not drawn) [Bistramide L]
IC50 (KB): 0.72 µg/mL (≈ 1.02 µM) | IC50 (P388 (p388s)): 0.48 µg/mL (≈ 0.681 µM) | IC50 (P388/dox (p388r)): 0.12 µg/mL (≈ 0.17 µM) | IC50 (B16; Mus musculus, B16, read-out: IC50 (50% inhibition of cell growth)): 2.4 µg/mL (≈ 3.4 µM) | IC50 (HT 29; HT-29, read-out: IC50 (50% inhibition of cell growth)): 0.29 µg/mL (≈ 0.411 µM) | IC50 (NSCLC.N6-L16; NSCLC-N6, read-out: IC50 (50% inhibition of cell growth)): 0.12 µg/mL (≈ 0.17 µM)
